From publication PMC9719539, “Single-molecule characterization of subtype-specific β1 integrin mechanics” (Nature Communications, 2022)

Assays:
[1] = biological target: T1, integrin αVβ5 (Homo sapiens, UniProt P06756+P18084); assay: Competition with cRGDfK-TF5WS binding to αVβ5 on K562 transfectants
T1 construct: expressed in transfected cells
From the text: (§1) Source data are provided as a Source Data file. […]
(§2) Source data are provided as a Source Data file.
(§3) (1 picture or pasted object on this page, not shown here)

[2] = biological target: T2, integrin αVβ3 (Homo sapiens, UniProt P05106+P06756); assay: Competition with cRGDfK-TF5WS binding to αVβ3 on K562 transfectants
T2 construct: expressed in transfected cells
From the text: as §1, §2, §3

[3] = test system: BJ-5ta cells; assay: Cytoskeletal inhibitor effects on TGT rupture and spreading; type: cell-based, human; settings: for TGT rupture with inhibitor (in words), all substrates / cell spreading with inhibitor (in words): 1 h; for TGT rupture with inhibitor (in words), all substrates: inhibitors 5 min preincubation; for cell spreading with inhibitor (in words): RGD- and LDVP-TGT
From the text: (21 pictures or pasted objects on this page, not shown here)

[4] = test system: BJ-5ta cells; assay: Percentage of spread cells / cell spreading on TGT surfaces; type: cell-based, human; settings: for tension threshold for cell spreading: nominal Ttol
Experimental: Glass coverslips were densely PEGylated to minimize non-specific interactions such as the binding of cell-secreted extracellular matrix proteins. Coverslips cleaned by piranha etching solution (a 3:1 mixture of sulfuric acid and hydrogen peroxide) were incubated in silanization solution (UCT, 1760-24-3; 2% aminosilane and 5% acetic acid in methanol) for 30 min and reacted with a mixture of Polyethylene glycol (PEG) with and without biotin (1:19, 150 mg/ml; Laysan Bio, Biotin-PEG-SVA-5000 and MPEG-SVA-5000) for 4 h. Surfaces were washed thoroughly and dried using nitrogen gas after each step. A 3D-printed dish (PLA) or a silicon gasket (Grace Bio Labs, 103280) was attached to the coverslip to form a dish. Neutravidin (Thermo Fisher scientific, 31000; 0.4 mg/ml) was added to the dish for 10 min and washed out thoroughly. The dish was emptied and a droplet (3 µL) of TGT solution (100 nM unless specified otherwise) was placed on the coverslip for 10 min in a humid condition to locally immobilize TGT. For the lateral drift correction for time-resolved TGT rupture analysis, biotin-coated gold nanoparticles (Luna Nanotech, GNP-BIOT-100-2-04; 100 nm) were sparsely immobilized as fiducial markers. For protein ligand coating, protein (50 ug/ml in PBS) was incubated in glass bottomed imaging dishes for 1 h at RT without additional passivation.
The cells were gently harvested by washing in PBS for 1 min, incubating with 0.05% trypsin for 3 min, and then neutralizing with cell culture medium (FBS 10%). The cells were spun down and resuspended with Leibovitz’s L-15 Medium (Gibco, 21083027) supplemented with 2 g/L glucose, then seeded on the TGT surface at an approximate density of 30 cells/mm^2. For integrin inhibition experiments, cells were incubated with Fab for 5 min before seeding. For cell immobilization experiments, cells were incubated with 1 nM Cholesterol-PEG-Biotin (Nanosoft Polymers, 3084-2000) for 5 min, followed by washes by centrifugation to remove biotin in solution before seeding. The imaging area was humidified and the temperature was maintained at 37 °C. A Nikon Eclipse Ti microscope equipped with Xenon arc lamp, Nikon perfect focus system, custom total internal reflection fluorescence microscopy (TIRFM) module, and custom reflection interference contrast microscopy (RICM) module was driven by Elements software. Dark regions in RICM show where cells have closely adhered to the surface (≪300 nm gap). Nikon 10X objective (CFI60 Plan Fluor) and 60X objective (CFI60 Apochromat TIRF) with DIC filter sets were used. […] Images were recorded using an electron-multiplying charge-coupled device (EMCCD; Andor iXon 888).
Single-cell data were obtained from multiple independent sample preparations for each condition as specified. Percentage of spread cells was obtained from three independent experiments. Statistical analyses were performed using MATLAB software. Two-sided (two sample) t-test was used for two group comparisons. Each group was compared with the control group unless specified otherwise. Representative micrographs are selected from at least two independent experiments.

[5] = test system: extended-open β1 integrin on BJ-5ta cells; assay: β1 integrin activation: number and density of bound AF647-12G10 Fab on biotin-PEG-cholesterol immobilized cells; type: cell-based, human
[6] = test system: BJ-5ta cells; assay: Actin retrograde flow rate (kymographs, SiR-actin); type: cell-based, human; settings: 64, 71 loci from 15, 13 cells
Experimental: BJ-5ta cells were seeded on RGD-54pN or LDVP-54pN surfaces for 40 min and 20 nM SiR-actin and 10 µM verapamil (Cytoskeleton, CY-SC001) were added 20 min before imaging. Time-lapse TIRF imaging (640 nm) was done with 2–5 s interval for more than 60 frames. Kymographs were generated with ImageJ and the linear fit analysis was done with MATLAB scripts.

[7] = biological target: integrin α4β1 (EO state); settings: extended-open conformation; read-out: affinity for EO state of α4β1; cited from earlier work
[8] = test system: BJ-5ta cells; assay: Traction force microscopy on ligand-coated polyacrylamide gels; type: cell-based, human
Experimental: Polyacrylamide gels (0.69 and 4.07 kPa shear modulus, 40 μm thickness) were prepared on glass coverslips with embedded 40 nm fluorescent beads (Thermo Scientific, TransFluoSpheres 633/720) and the surfaces were coated with neutravidin as described. […] Cells were seeded on the gels for 1 h. The bead images were taken before and after cell removal with the addition of 0.1% SDS. Bead displacements were determined using particle image velocimetry, and the corresponding contractile energy was estimated with Fourier transform traction cytometry, using ImageJ plugins. The cell area was determined by manually drawing an ROI in the DIC channel. Imaging was performed on Nikon Eclipse Ti2 microscopes equipped with Perfect Focus, CSU-W1 spinning disk, and Hamamatsu Orca-flash 4.0 v3 camera. Illumination was provided by optical fiber (Oz Optics) coupled solid-state lasers: 561 nm (200 mW) for Cy3 and, 655 nm (100 mW) for fluorescent beads from Spectral Applied Research.

[9] = test system: BJ-5ta cells; assay: BJ-5ta spreading on ACRGD-TGT with or without integrin blocking Fabs (area, aspect ratio); type: cell-based, human
Experimental: Fig. 9 Integrin α5β1 mediated cell spreading. a Affinity of ACRGD for integrins on intact cells. Titration curves are shown in Supplementary Fig. 13. b–d Behavior of BJ-5ta on ACRGD-54pN (BHQ2-Cy3) surfaces after 1 h in presence of integrin blocking Fabs described in Fig. 6 legend. b Close-contact enclosed area from RICM images (n = 43, 38, 47, 96, 50 cells). c Aspect ratio of contact area (n = 56, 49, 38 cells, >500 μm^2). d Ruptured TGT counts (n = 44, 40, 48, 96 cells). e–g Cell spreading on ACRGD-TGT of different Ttol in presence of integrin blocking Fabs. e Representative images of cells with RICM (top row) and same cells with DIC or Cy3 fluorescence to show TGT rupture (bottom row). Dim RICM rings (~20 μm diameter) with 12, 23 and 33 pN TGT are the shadows of the spherical cell body, not the close contacts. […]
The cells were gently harvested by washing in PBS for 1 min, incubating with 0.05% trypsin for 3 min, and then neutralizing with cell culture medium (FBS 10%). […] A Nikon Eclipse Ti microscope equipped with Xenon arc lamp, Nikon perfect focus system, custom total internal reflection fluorescence microscopy (TIRFM) module, and custom reflection interference contrast microscopy (RICM) module was driven by Elements software. […] Images were recorded using an electron-multiplying charge-coupled device (EMCCD; Andor iXon 888).

C[C@H](N)C(=O)N[C@H]1CSSC[C@@H](C(=O)NCC(=O)O)NC(=O)[C@H](Cc2c[nH]c3ccccc23)NC(=O)CNC(=O)[C@H](CC(=O)O)NC(=O)CNC(=O)[C@H](CCCNC(=N)N)NC1=O
EC50 ([1]; EC50 αVβ5, L15 + 1 mM Mn2+, competition with 25 nM cRGDfK-TF5WS): 102 ± 7 nM | EC50 ([1]; EC50 αVβ5, L15, no Mn2+, competition with 50 nM cRGDfK-TF5WS): 367 ± 29 nM | Kd ([1]; Kd αVβ5, L15 + 1 mM Mn2+, 1% BSA, competition with 25 nM cRGDfK-TF5WS): 50 ± 4 nM | IC50 [2]: 765 ± 84 nM | Kd ([2]; Kd αVβ3, L15 + 1 mM Mn2+, 1% BSA, competition with 25 nM cRGDfK-TF5WS): 170 ± 20 nM | Kd ([2]; Kd αVβ3, L15, 1% BSA, no Mn2+, competition with cRGDfK-TF5WS (25 nM for Fabs, 50 nM for ACRGDGWCG), Kd = EC50/(1+CL/Kd,L)): 530 ± 60 nM

Cc1[nH]c2ccccc2c1CCNC(=O)c1ccccc1F [CK666]
TGT rupture with inhibitor (in words), all substrates [3]: no significant effect

C=C1[C@@H](C)[C@H]2[C@H](Cc3ccccc3)NC(=O)[C@]23[C@H](OC(C)=O)/C=C/[C@@](C)(O)C(=O)[C@@H](C)C/C=C/[C@H]3[C@@H]1O [Cytochalasin D]
TGT rupture with inhibitor (in words), all substrates [3]: eliminated TGT rupture on all substrates | cell spreading with inhibitor (in words) [3]: inhibited cell spreading

O=S(=O)(c1cccc2c(I)cccc12)N1CCCNCC1 [ML-7]
rupture of RGD-54pN with inhibitor (in words) ([3]; RGD-54pN): significantly suppressed | cell spreading with inhibitor (in words) [3]: did not disrupt cell spreading

O=C1NC(=S)N(c2cccc(Br)c2)C(=O)/C1=C/c1ccco1 [SMIFH2]
TGT rupture with inhibitor (in words), all substrates [3]: greatly diminished TGT rupture | cell spreading with inhibitor (in words) [3]: greatly decreased spreading

C[C@@H](N)[C@H]1CC[C@H](C(=O)Nc2ccncc2)CC1 [Y-27632]
rupture of RGD-54pN with inhibitor (in words) ([3]; RGD-54pN): significantly suppressed | cell spreading with inhibitor (in words) [3]: did not disrupt cell spreading

Cc1ccc2c(c1)C(=O)[C@]1(O)CCN(c3ccc(N)cc3)C1=N2 [para-amino-blebbistatin]
rupture of LDVP-12pN with inhibitor (in words) ([3]; LDVP-12pN, 50 uM, listed as para-amino-Blebbistatin): no role | share of rupture requiring myosin II (para-amino-Blebbistatin) ([3]; LDVP-33pN): about one third | rupture of LDVP-33pN with inhibitor (in words) ([3]; LDVP-33pN, 50 uM): significantly reduced rupture events | rupture of RGD-54pN with inhibitor (in words) ([3]; RGD-54pN): significantly suppressed | share of rupture requiring myosin II (para-amino-Blebbistatin) ([3]; RGD-54pN): half | cell spreading with inhibitor (in words) [3]: did not disrupt cell spreading

MUPA-LDVPAAK [LDVP-TGT, tension gauge tether conjugated with MUPA-LDVPAAK]
tension threshold for cell spreading ([4]; 1 h): < 12 pN | cell spreading (in words) ([4]; 1 h after seeding): adhered and spread well | force needed for activation of β1 integrin to high affinity state [5]: less than 12 pN | 12G10 Fab density / activated β1 density (in words) ([5]; versus control, 30 min): significantly above the control and similar at all Ttol | retrograde actin flow [6]: 24.8 nm/s

MUPA-LDVPAAK [α4β1-specific peptidomimetic; 2-methylphenylureaphenylacetyl moiety linked to LDVP motif]
Kd [7]: 0.15 nM | spread cells (fraction), sheet 1c ([4]; TGT 0.01 nM): 0.05399 | spread cells (fraction), sheet 1c ([4]; TGT 0.1 nM): 0 | spread cells (fraction), sheet 1c ([4]; TGT 0.3 nM): 0.8785 | spread cells (fraction), sheet 1c ([4]; TGT 1 nM): 0.9623 | spread cells (fraction), sheet 1c ([4]; TGT 10 nM): 0.9712 | spread cells (fraction), sheet 1c ([4]; TGT 100 nM): 0.9873 | Spread cells on TGT, 12pN ([4]; Ttol 12pN, 1 h, mean, SE in own column, n = 3 independent experiments, given as fraction): 0.9277 | Spread cells on TGT, 23pN ([4]; Ttol 23pN, 1 h, mean, n = 3, given as fraction): 0.9461 | Spread cells on TGT, 33pN ([4]; Ttol 33pN, 1 h, mean, n = 3, given as fraction): 0.9711 | Spread cells on TGT, 43pN ([4]; Ttol 43pN, 1 h, mean, n = 3, given as fraction): 0.9954 | Spread cells on TGT, 54pN ([4]; Ttol 54pN, 1 h, mean, n = 3, given as fraction): 0.9781 | traction force (in words) ([8]; 4 kPa and 0.7 kPa gels, versus RGD): significantly lower | lower traction force than on RGD ([8]; soft gel (0.7 kPa)): ~ 10 fold

cyclic-ACRGDGWCGK (disulfide) [ACRGD-TGT]
spreading on ACRGD-54pN with blocking Fabs (in words) ([9]; ACRGD-54pN (BHQ2-Cy3), 1 h): spread efficiently and developed elongated, irregular shapes | force level required for spreading through α5β1 ([9]; blocking Fabs to αVβ1, αVβ3 and αVβ5 present): > 33 pN

cyclo [Arg-Gly-Asp-D-Phe-Lys(8-amino-3,6-dioxaoctanoic acid dimer)] (head to tail) [RGD-TGT]
tension threshold for cell spreading ([4]; 1 h): 33–43 pN | retrograde actin flow [6]: 10.1 nm/s

proTGF-β1: physiologic macromolecular ligand with RGD motif
cell morphology (in words) ([4]; 1 h after seeding): elongated with irregular lamellipodia
